How the values were obtained:
mice = assay: Open Field testing; format: in vivo, mouse; conditions: for Anxiolytic effects in Open Field testing: FIGS. 9A-9D
Procedure: Open Field testing was also performed. In carrying out this testing, individually housed male and female mice aged 8-12 weeks were used. The mice were maintained on a reverse L:D/12 p.m.: 12 a.m. cycle in a barrier facility. Food and water were available ad libitum. Testing occurred towards the end of the light cycle between 6-12 a.m. Mice were acclimated to the testing room for at least 30 minutes. The assay was performed in a custom-made Open Field Apparatus. Each chamber was a 50 by 50 cm square. The experiment was recorded and tracked by a tracking system obtained from Viewpoint.
The time and the path length in the center of the open field were determined. The center of the open field is defined as a 13.5×13.5 cm square in the geometric center of the arena. The percent of path in the center is calculated as
[formula] For each mouse, the total path length and path length for 60 minutes at 5 minute intervals was determined as a measure of locomotor activity. In addition, feces produced by each experimental animal during the test was counted. Each chamber was cleaned between individual mouse testing.
Path length for 60 minutes at 5 minute intervals was analyzed by repeat measures using SPSS software. All other parameters were compared using unpaired t-test (GraphPad Prism).

[1] = Tolerability and observable behavior changes; format: in vivo; conditions: for Well tolerated dose: in vivo; for Duration of observable changes in behavior: occurred in minutes
[2] = target: Norepinephrine Transporter (Human Recombinant) (Homo sapiens (Human), UniProt P23975); assay: Norepinephrine transporter (human recombinant) binding assay, [3H]-Nisoxetine; conditions: read-out: INH at 10 μM NET
Procedure: II: Norepinephrine Transporter (Human Recombinant) Binding Assay • This assay was carried out in accordance with the procedure described by Raisman, R, et al. Eur. Jrnl. Pharmacol. 78: 345-351 (1982) with modifications. See also, Langer, S., et al., Eur. Jrnl. Pharmacol, 72: 423-4 (1981). Tissue Preparation • 1. hrNET (Receptor Biology; RBNET) is diluted in assay buffer to 2.5 microunits/ml, so that each tube receives 0.5 microunits, or 2 microunits/ml. • NOTE: 100 microassays, add 20 mis of buffer. Binding Reaction • 1. Each tube receives the following components: • 25 ul drug or vehicle • 25 ul [^3H]-Nisoxetine • 200 ul tissue suspension. • 2. Initiate binding reaction with the addition of tissue, and incubate at room temperature for 1 hour. • 3. Terminate binding reaction by rapid filtration of tube contents onto 0.1% PEI treated GF/C filters (TopCount). • 4. Rinse the assay tubes once with ice cold 50 mM NaCl, then rapidly rinse the filters with 6×1 ml/tube of the same wash buffer. • 5. Radioactivity trapped onto the filters is assessed using liquid scintillation spectrophotometer after soaking the filters for at least 1 hour in scintillation cocktail. Materials and Reagents • 1. The receptor source is human recombinant/CHO. • 2. [^3H]-Nisoxetine, diluted to a concentration of 10 nM in assay buffer, is used as the radioligand. Thus, the final ligand concentration is 1 nM. • 3. Non specific binding is defined as that remaining in the presence of 1×10^−6M desipramine (MW=302.8) (Make fresh: in bag with dessicating rocks 1, dissolves in water 1E-3). • 4. The reference compound for the assay is desipramine. Desimpramine is run at following final concentrations: • 1×10^−10, 2×10^−10, 5×10^−10, 1×10^−9, 2×10^−9, 5×10^−9, 1×10^−8, 2×10^−8, 5×10^−8, 1×10^−7, 2×10^−7, 5×10^−7M • 5. The positive control is any of the above run at the final concentrations of: • 1×10^−9, 5×10^−9, 2×10^−8 M. • 6. The Kd for the receptor is 3 nM. Buffers

With `Cc1ccc(C[n+]2[cH-]/c(=N\C(=O)Nc3ccccc3)on2)cc1` [Example 3, N-phenylcarbamoyl-3-(p-methyl-benzyl)-sydnonimine] the “Locomotor activity in open field testing” value (mice; 10 and 90 mg/kg, FIG. 8) was “effective to reduce locomotor activity”, the “Anxiolytic effects in Open Field testing” value (mice; 10 and 90 mg/kg) was “demonstrable anxiolytic effects” and the “Number of fecal boli in open field testing” value (mice; mouse, in vivo) was “no effect”. For the same compound, the “Dosage above which subjects became lethargic” value [1] was “above 125 kg/mg”, the Well tolerated dose [1] was “at least 200 mg/kg” and the “Duration of observable changes in behavior” value [1] was 2 to 3 h. It also gave an inhibition at 10 µM [2] of 14%.
With `O=C(/N=c1\[cH-][n+](CCCc2ccccc2)no1)Nc1ccccc1` [Example 6, N-phenylcarbamoyl-3-(phenylpropyl)-sydnonimine] the “Anxiolytic effects in Open Field testing” value (mice; 10 and 90 mg/kg) was “induces anxiolytic effects”, the “Lethargic effect (compared with Example 3)” value ([1]; higher concentrations) was “this effect was reduced” and the Well tolerated dose [1] was “at least 200 mg/kg”. The “Duration of observable changes in behavior” value [1] was 2 to 3 h and the inhibition at 10 µM [2] was 1.44%.

— patent US9604945B2, “Sydnonimines-specific dopamine reuptake inhibitors and their use in treating dopamine related disorders” (priority 2007, dated 2017)
